Patent publication US12427168B2, “Extracellular vesicle and use thereof in skin products” (EV CELL BIOTECH (GUANGZHOU) CO., LTD., priority 2020, dated 2025)

Key:
[1] = test system: Wnt signaling pathways; test: Skin excretion of IEVs under Wnt agonist or inhibitor (Western Blot, immunofluorescence); type: in vivo; conditions: Licl 10 mg/kg or XAV939 1 mg/kg intraperitoneally for 3 days, FIGS. 13A-B
[2] = test system: skin mesenchymal stem cells; test: Uptake of IEVs by skin mesenchymal stem cells, cell smear; type: cell-based; conditions: FIG. 13D
[3] = test system: mice; test: Wound healing of 1 cm×1 cm full-thickness wound; type: in vivo; conditions: for effect on promotion of wound healing by IEVs: with IEVs, FIG. 15B
Description: A 1 cm×1 cm full-thickness wound was made in mice, and the effect of systemic injections of MSCs and IEVs on wound healing was examined.

[4] = test system: mice; test: Hair regrowth with IEVs alone or combined with anti-aging substances; type: in vivo; conditions: combined with IEVs, FIG. 12
Description: After systemic injection of PKH26-IEV in C57 mice, rapamycin (5 mg/kg), metformin (100 mg/kg), dadatinib (5 mg/kg) and resveratrol (10 mg/kg) were intraperitoneally injected for 7 days, respectively.

[5] = test system: active-β-catenin; test: Active-β-catenin intensity in the skin, immunofluorescence; type: in vivo; conditions: with IEVs, FIG. 13E

Row | SMILES | effect on skin excretion of IEVs [1] | effect on uptake of IEVs by skin mesenchymal stem cells [2] | IEVs accumulation in the wound site ([3]; immunofluorescence, FIG. 15C) | effect on promotion of wound healing by IEVs [3] | effect of the combination on hair regrowth promotion by IEVs [4] | effect on IEV-stimulated activation of Wnt signaling pathways in the skin [5]
1 | [Cl-].[Li+] [Licl] | significant increase in skin excretion of IEVs | affected | significantly increased IEVs accumulation in the wound site | accelerated the promotion of wound healing by IEVs |  | 
2 | CN(C)C(=N)N=C(N)N [metformin] |  |  |  |  | promoted the promotion effects of hair regrowth by IEVs | 
3 | Oc1ccc(C=Cc2cc(O)cc(O)c2)cc1 [resveratrol] |  |  |  |  | promoted the promotion effects of hair regrowth by IEVs | 
4 | Oc1nc(-c2ccc(C(F)(F)F)cc2)nc2c1CSCC2 [XAV939] |  | affected |  | significantly attenuated the promotion of wound healing by IEVs |  | attenuated this activation process
